The nature of data set [1]: Cmax in male Sprague-Dawley rat at 5 mg/kg, po measured by LC-MS/MS analysis. Conditions: in vivo. The class given is ADME, organism-based. On the set-up: dose 5 mg/kg, route po.
For data set [2], the system named is Mus musculus. In words: Anti-NASH activity against high fat (HF) diet-induced nonalcoholic steatohepatitis in leptin-deficient ob/ob mouse model assessed as reduction in serum TG level at 3 mg/kg, po administered once daily from week 5 to 10. The class given is functional, organism-based.
For data set [3], the system named is Mus musculus. As to the kind of experiment: Anti-NASH activity against high fat (HF) diet-induced nonalcoholic steatohepatitis in leptin-deficient ob/ob mouse model assessed as reduction in serum ALT level at 0.1 to 1 mg/kg, po administered once daily from week 5 to 10. Type of data set: functional, organism-based. Conditions: dose 0.1-1 mg/kg.
A short description of data set [4]: Toxicity in po dosed Sprague-Dawley rat assessed as maximum tolerated dose. The class given is organism-based. Conditions: in vivo.
Data set [5] can be described thus: Drug recovery in kidney of male Sprague-Dawley rat at 4.5 mg/kg, po administered as C14-lableled compound and assessed as radioactivity and measured at 24 hrs. Type of data set: ADME, organism-based. The conditions noted are these: in vivo.
The nature of data set [6]: Oral bioavailability in male Beagle dog at 5 mg/kg measured by LC-MS/MS analysis. Type of data set: ADME, organism-based, Canis lupus familiaris. The conditions noted are these: in vivo.
The subject of data set [7] is Mus musculus. In words: Antifibrotic activity in C57BL/6 mouse model of CCI4-induced liver fibrosis assessed as reduction in fibrosis area at 0.1 to 1 mg/kg, po administered once daily for 4 weeks. Type of data set: functional, organism-based. The conditions noted are these: dose 0.1-1 mg/kg.
The nature of data set [8]: Drug recovery in pancreas of male Sprague-Dawley rat at 4.5 mg/kg, po administered as C14-lableled compound and assessed as radioactivity and measured at 6 hrs. Type of data set: ADME, organism-based. Conditions: in vivo, BLD = below limit of detection.
Data set [9] is described as follows: Drug recovery in ileum of male Sprague-Dawley rat at 4.5 mg/kg, po administered as C14-lableled compound and assessed as radioactivity and measured at 6 hrs. Type of data set: ADME, organism-based. Conditions: in vivo.
A short description of data set [10]: Half-life in male C57BL/6 mouse at 5 mg/kg, po measured by LC-MS/MS analysis. Type of data set: ADME, organism-based. The conditions noted are these: in vivo.
Data set [11] can be described thus: Drug recovery in skin of male Sprague-Dawley rat at 4.5 mg/kg, po administered as C14-lableled compound and assessed as radioactivity and measured at 1 hr. Type of data set: ADME, organism-based, Skin of body. The conditions noted are these: in vivo.
For data set [12], the system named is Mus musculus. As to the kind of experiment: Anti-NASH activity in western style diet-induced nonalcoholic steatohepatitis model of male C57BL/6 mouse assessed as reduction in serum ALT level at 1 mg/kg, po administered once daily from week 32 to 44. The class given is functional, organism-based.
A short description of data set [13]: Drug recovery in liver of male Sprague-Dawley rat at 4.5 mg/kg, po administered as C14-lableled compound and assessed as radioactivity and measured at 24 hrs. The class given is ADME, organism-based. Conditions: in vivo.
The nature of data set [14]: Drug recovery in plasma of male Sprague-Dawley rat at 4.5 mg/kg, po administered as C14-lableled compound and assessed as radioactivity and measured at 6 hrs. Conditions: in vivo. The class given is ADME, organism-based.
The nature of data set [15]: Drug recovery in ileum of male Sprague-Dawley rat at 4.5 mg/kg, po administered as C14-lableled compound and assessed as radioactivity and measured at 24 hrs. Type of data set: ADME, organism-based. The conditions noted are these: in vivo.
Data set [16] can be described thus: Drug recovery in kidney of male Sprague-Dawley rat at 4.5 mg/kg, po administered as C14-lableled compound and assessed as radioactivity and measured at 1 hr. Type of data set: ADME, organism-based. Conditions: in vivo.
Data set [17] is described as follows: Half-life in male Beagle dog at 5 mg/kg, po measured by LC-MS/MS analysis. Conditions: in vivo. Type of data set: ADME, organism-based, Canis lupus familiaris.
Data set [18] can be described thus: Drug recovery in pancreas of male Sprague-Dawley rat at 4.5 mg/kg, po administered as C14-lableled compound and assessed as radioactivity and measured at 1 hr. Type of data set: ADME, organism-based. Conditions: in vivo.

The source made the active and inactive calls. The rule behind the calls is not given here.

This is an account of results in ChEMBL document CHEMBL5154690, “Discovery of a tricyclic farnesoid X receptor agonist HEC96719, a clinical candidate for treatment of non-alcoholic steatohepatitis” (Eur J Med Chem, 2022).

Usually Cmax stands for the highest concentration seen after dosing. For orientation: MTD means the highest dose tested that stayed within the study's limit of toxicity. In general, bioavailability refers to the share of a dose that reaches the circulation, judged against a reference dose that is usually intravenous. Usually half-life stands for the time in which the quantity being followed falls by half. Lower therefore signals fast loss. Turning to `O=C(O)c1ccc2c(c1)Oc1ccc(OCc3c(-c4c(Cl)cccc4Cl)noc3C3CC3)nc1C1(CC1)C2`, the concentration in data set [1] peaked (Cmax) at 1090 ng/mL. The result in data set [2], in data set [3], in data set [7] and in data set [12] was Active. Further, in data set [4], the MTD was determined as 2000 mg/kg. The Drug recovery was 74.4 ngequiv/g in data set [5]; “Bld” in [8]; 5620 ngequiv/g in data set [9]; 117 ngequiv/g in data set [11]; 304 ngequiv/g in data set [13]; 27 ngequiv/g in data set [14]. In addition, the Drug recovery in data set [15] is on record as 1542 ngequiv/g; in data set [16] it was 457 ngequiv/g; in data set [18] it was 229 ngequiv/g. The same compound returned a bioavailability in [6] of 42.3%. Further, the half-life in data set [10] is 1.06 h; in data set [17], 3.42 h.
